Target: T1, ATP-sensitive inward rectifier potassium channel 1 (Homo sapiens, UniProt P48048)
T1 sequence (P48048 whole entry): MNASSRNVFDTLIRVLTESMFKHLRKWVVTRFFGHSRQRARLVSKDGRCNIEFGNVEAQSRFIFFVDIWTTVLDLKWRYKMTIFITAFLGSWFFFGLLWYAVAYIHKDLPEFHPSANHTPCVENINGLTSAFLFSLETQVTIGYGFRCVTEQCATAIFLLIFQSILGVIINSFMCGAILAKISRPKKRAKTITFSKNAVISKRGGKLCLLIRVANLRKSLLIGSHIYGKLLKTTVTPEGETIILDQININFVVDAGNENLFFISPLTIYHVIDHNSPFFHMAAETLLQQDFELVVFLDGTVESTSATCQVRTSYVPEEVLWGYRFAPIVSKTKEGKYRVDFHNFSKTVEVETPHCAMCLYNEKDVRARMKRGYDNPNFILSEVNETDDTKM
Experiment: Thallium Flux Assay: A Thallium Flux Assay was performed on each of the final product compounds of the Examples. This assay has been described previously; see, e.g., PCT Published Application WO 2013/062900.

SMILES | IC50 [nM]
C[C@H]1C[C@]2(CC[C@@H](NCc3cnc(-n4cnnn4)s3)CC2)C(=O)N1C1=CC(=O)OC1 | 24
CC1=C(N2C(=O)[C@]3(CC[C@@H](NCc4cnc(-n5cnnn5)cn4)CC3)C[C@@H]2C)COC1=O | 420
CC1=C(N2C(=O)[C@]3(CC[C@H](N(C)Cc4cnc(-n5cnnn5)cn4)CC3)C[C@H]2C)COC1=O | 200
C[C@@H]1C[C@]2(CC[C@@H](NCc3ccc(-n4cnnn4)nn3)CC2)C(=O)N1C1=CC(=O)OC1 | 110
CC1=C(N2CC[C@]3(CC[C@@H](N(C)Cc4ccc(-n5ncnn5)nc4)CC3)C2=O)COC1=O | 640
CC1C[C@]2(CC[C@@H](NCc3cnc(-n4cnnn4)cn3)CC2)C(=O)N1C1=CC(=O)OC1 (stereo not given in full) | 46
CC1=C(N2CC[C@]3(CC[C@@H](N(C)Cc4cnc(-n5cnnn5)s4)CC3)C2=O)COC1=O | 30
CC1=C(N2C(=O)[C@]3(CC[C@H](N(C)Cc4ccc(-n5cnnn5)nn4)CC3)C[C@H]2C)COC1=O | 200
C[C@@H]1C[C@]2(CC[C@@H](NCc3cnc(-n4cnnn4)s3)CC2)C(=O)N1C1=CC(=O)OC1 | 190
C[C@H]1C[C@]2(CC[C@H](NCc3ccc(-n4cnnn4)nn3)CC2)C(=O)N1C1=CC(=O)OC1 | 8.4
CC1=C(N2C(=O)[C@]3(CC[C@H](N(C)Cc4ccc(-n5cnnn5)nn4)CC3)C[C@@H]2C)COC1=O | 200
CC1=C(N2CC[C@]3(CC[C@@H](NCc4cnc(-n5cnnn5)s4)CC3)C2=O)COC1=O | 92
C[C@@H]1C[C@]2(CC[C@@H](N(C)Cc3ccc(-n4cnnn4)nn3)CC2)C(=O)N1C1=CC(=O)OC1 | 270
CC1=C(N2CCC3(CCC(NCc4ccc5c(c4C)Cn4nnnc4-5)CC3)C2=O)COC1=O (stereo not given) | 19
CC1C[C@]2(CC[C@@H](NCc3ccc(-n4cnnn4)nn3)CC2)C(=O)N1C1=CC(=O)OC1 (stereo not given in full) | 28
CC1=C(N2CC[C@]3(CC[C@@H](N(Cc4ccc(-n5cnnn5)nn4)Cc4ncco4)CC3)C2=O)COC1=O | 210
C[C@H]1C[C@]2(CC[C@@H](NCc3ccc(-n4cnnn4)nn3)CC2)C(=O)N1C1=CC(=O)OC1 | 30
CC1=C(N2CC[C@]3(CC[C@@H](N[C@@H](C)c4ccc(-n5cnnn5)nn4)CC3)C2=O)COC1=O | 320
CC1=C(N2C(=O)[C@]3(CC[C@@H](N(C)Cc4cnc(-n5cnnn5)cn4)CC3)C[C@@H]2C)COC1=O | 310
CC1=C(N2CC[C@]3(CC[C@@H](NC(C)c4cnc(-n5cnnn5)cn4)CC3)C2=O)COC1=O (stereo not given in full) | 170
CC1=C(N2C(=O)[C@]3(CC[C@H](NCc4cnc(-n5cnnn5)cn4)CC3)C[C@H]2C)COC1=O | 65
CC1=C(N2C(=O)[C@]3(CC[C@H](NCc4ccc(-n5cnnn5)nn4)CC3)C[C@H]2C)COC1=O | 23
CC1=C(N2C(=O)[C@]3(CC[C@H](NCc4ccc(-n5cnnn5)nn4)CC3)C[C@@H]2C)COC1=O | 40
CC1=C(N2CC[C@]3(CC[C@@H](N(CCO)Cc4ccc(-n5cnnn5)nn4)CC3)C2=O)COC1=O | 150
CC1=C(N2CC[C@]3(CC[C@@H](NCc4cc(C)c(-n5cnnn5)nn4)CC3)C2=O)COC1=O | 8.4
